Laboratory results: PubChem BioAssay (NCI)
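Five compound concentrations were applied to cells in 96-well plates for 48 hours; endpoints were derived by simple linear interpolation of the resulting dose-response curve. Here, GI50 denotes the concentration required for 50% inhibition of growth. TGI: concentration producing complete growth inhibition.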

Experiments:
Experiment in all cases: growth of human tumour cells (NCI), 48 h
EKVX NSCLC = system: EKVX NSCLC
UACC-62 melanoma = system: UACC-62 melanoma
U251 CNS = system: U251 CNS
SF-295 CNS = system: SF-295 CNS
HCT-116 colon = system: HCT-116 colon
COLO 205 colon = system: COLO 205 colon
786-0 renal = system: 786-0 renal
SW-620 colon = system: SW-620 colon
ACHN renal = system: ACHN renal
HOP-92 NSCLC = system: HOP-92 NSCLC
MDA-MB-231 breast = system: MDA-MB-231 breast
UACC-257 melanoma = system: UACC-257 melanoma
KM12 colon = system: KM12 colon
UO-31 renal = system: UO-31 renal
SK-MEL-2 melanoma = system: SK-MEL-2 melanoma
PC-3 prostate = system: PC-3 prostate
K-562 leukemia = system: K-562 leukemia
SN12C renal = system: SN12C renal
SF-268 CNS = system: SF-268 CNS
M14 melanoma = system: M14 melanoma
HS 578T breast = system: HS 578T breast
SNB-75 CNS = system: SNB-75 CNS
HCT-15 colon = system: HCT-15 colon
NCI/ADR-RES ovarian = system: NCI/ADR-RES ovarian
BT-549 breast = system: BT-549 breast
OVCAR-3 ovarian = system: OVCAR-3 ovarian
SK-OV-3 ovarian = system: SK-OV-3 ovarian
SK-MEL-28 melanoma = system: SK-MEL-28 melanoma
IGROV1 ovarian = system: IGROV1 ovarian
RPMI-8226 leukemia = system: RPMI-8226 leukemia
OVCAR-4 ovarian = system: OVCAR-4 ovarian
NCI-H522 lung = system: NCI-H522 lung
SF-539 CNS = system: SF-539 CNS
MDA-MB-435 = system: MDA-MB-435
HOP-62 NSCLC = system: HOP-62 NSCLC
SNB-19 CNS = system: SNB-19 CNS
DU-145 prostate = system: DU-145 prostate
CAKI-1 renal = system: CAKI-1 renal
NCI-H23 lung = system: NCI-H23 lung
HT29 colon = system: HT29 colon
NCI-H460 lung = system: NCI-H460 lung
OVCAR-8 ovarian = system: OVCAR-8 ovarian
A498 renal = system: A498 renal
MALME-3M melanoma = system: MALME-3M melanoma
SK-MEL-5 melanoma = system: SK-MEL-5 melanoma
HL-60(TB) leukemia = system: HL-60(TB) leukemia
CCRF-CEM leukemia = system: CCRF-CEM leukemia
MOLT-4 leukemia = system: MOLT-4 leukemia
OVCAR-5 ovarian = system: OVCAR-5 ovarian
RXF 393 renal = system: RXF 393 renal
LOX IMVI melanoma = system: LOX IMVI melanoma
NCI-H226 lung = system: NCI-H226 lung
A549 NSCLC = system: A549 NSCLC
HCC-2998 colon = system: HCC-2998 colon
TK-10 renal = system: TK-10 renal
MCF7 breast = system: MCF7 breast

Question: `COc1ccc(/C(C)=C(\c2ccc(Cl)cc2)c2ccc(OCCN3CCCCC3)cc2)cc1` was tested. Which GI50 (EKVX NSCLC) did it give?
Answer: 2.66 µM

Question: What about the TGI (EKVX NSCLC) of the same compound?
Answer: 8.79 µM

Question: And the GI50 (UACC-62 melanoma)?
Answer: 2.12 µM

Question: And the TGI (UACC-62 melanoma)?
Answer: 6.45 µM

Question: What about the GI50 (U251 CNS) of the same compound?
Answer: 4.13 µM

Question: What about the TGI (U251 CNS) of the same compound?
Answer: 8.77 µM

Question: What about the GI50 (SF-295 CNS) of the same compound?
Answer: 2.97 µM

Question: What about the TGI (SF-295 CNS) of the same compound?
Answer: 7.54 µM

Question: And the GI50 (HCT-116 colon)?
Answer: 1.46 µM

Question: What about the TGI (HCT-116 colon) of the same compound?
Answer: 5.24 µM

Question: What about the GI50 (COLO 205 colon) of the same compound?
Answer: 2.25 µM

Question: And the TGI (COLO 205 colon)?
Answer: 7.05 µM

Question: What about the GI50 (786-0 renal) of the same compound?
Answer: 0.746 µM

Question: What about the TGI (786-0 renal) of the same compound?
Answer: 1.9 µM

Question: What about the GI50 (SW-620 colon) of the same compound?
Answer: 3.34 µM

Question: And the TGI (SW-620 colon)?
Answer: 8.09 µM

Question: What about the GI50 (ACHN renal) of the same compound?
Answer: 5.13 µM

Question: And the TGI (ACHN renal)?
Answer: 9.61 µM

Question: What about the GI50 (HOP-92 NSCLC) of the same compound?
Answer: 3.45 µM

Question: And the TGI (HOP-92 NSCLC)?
Answer: 7.55 µM

Question: What about the GI50 (MDA-MB-231 breast) of the same compound?
Answer: 4.58 µM

Question: What about the TGI (MDA-MB-231 breast) of the same compound?
Answer: 9.22 µM

Question: What about the GI50 (UACC-257 melanoma) of the same compound?
Answer: 5.73 µM

Question: What about the TGI (UACC-257 melanoma) of the same compound?
Answer: 10.8 µM

Question: And the GI50 (KM12 colon)?
Answer: 2.72 µM

Question: And the TGI (KM12 colon)?
Answer: 16 µM

Question: What about the GI50 (UO-31 renal) of the same compound?
Answer: 3.46 µM

Question: And the TGI (UO-31 renal)?
Answer: 7.4 µM

Question: And the GI50 (SK-MEL-2 melanoma)?
Answer: 5.85 µM

Question: What about the TGI (SK-MEL-2 melanoma) of the same compound?
Answer: 10.7 µM

Question: What about the GI50 (PC-3 prostate) of the same compound?
Answer: 1.81 µM

Question: What about the TGI (PC-3 prostate) of the same compound?
Answer: 6.59 µM

Question: What about the GI50 (K-562 leukemia) of the same compound?
Answer: 1.28 µM

Question: And the TGI (K-562 leukemia)?
Answer: 10.4 µM

Question: And the GI50 (SN12C renal)?
Answer: 4.68 µM

Question: And the TGI (SN12C renal)?
Answer: 9.53 µM

Question: And the GI50 (SF-268 CNS)?
Answer: 7.75 µM

Question: What about the TGI (SF-268 CNS) of the same compound?
Answer: 26.8 µM

Question: And the GI50 (M14 melanoma)?
Answer: 0.861 µM

Question: What about the TGI (M14 melanoma) of the same compound?
Answer: 2.36 µM

Question: And the GI50 (HS 578T breast)?
Answer: 5.16 µM

Question: What about the TGI (HS 578T breast) of the same compound?
Answer: 13.3 µM

Question: What about the GI50 (SNB-75 CNS) of the same compound?
Answer: 4.11 µM

Question: What about the TGI (SNB-75 CNS) of the same compound?
Answer: 10.6 µM

Question: And the GI50 (HCT-15 colon)?
Answer: 1.16 µM

Question: What about the TGI (HCT-15 colon) of the same compound?
Answer: 4.56 µM

Question: And the GI50 (NCI/ADR-RES ovarian)?
Answer: 4.79 µM

Question: What about the TGI (NCI/ADR-RES ovarian) of the same compound?
Answer: 9.86 µM

Question: And the GI50 (BT-549 breast)?
Answer: 3.19 µM

Question: And the TGI (BT-549 breast)?
Answer: 7.55 µM

Question: What about the GI50 (OVCAR-3 ovarian) of the same compound?
Answer: 5.26 µM

Question: What about the TGI (OVCAR-3 ovarian) of the same compound?
Answer: 11 µM

Question: And the GI50 (SK-OV-3 ovarian)?
Answer: 6.25 µM

Question: And the TGI (SK-OV-3 ovarian)?
Answer: 12.3 µM

Question: What about the GI50 (SK-MEL-28 melanoma) of the same compound?
Answer: 3.99 µM

Question: What about the TGI (SK-MEL-28 melanoma) of the same compound?
Answer: 8.4 µM

Question: What about the GI50 (IGROV1 ovarian) of the same compound?
Answer: 4.93 µM

Question: What about the TGI (IGROV1 ovarian) of the same compound?
Answer: 11.2 µM

Question: What about the GI50 (RPMI-8226 leukemia) of the same compound?
Answer: 1.44 µM

Question: What about the TGI (RPMI-8226 leukemia) of the same compound?
Answer: 6.64 µM

Question: And the GI50 (OVCAR-4 ovarian)?
Answer: 3.76 µM

Question: And the TGI (OVCAR-4 ovarian)?
Answer: 9.51 µM

Question: And the GI50 (NCI-H522 lung)?
Answer: 4.12 µM

Question: And the TGI (NCI-H522 lung)?
Answer: 8.66 µM

Question: And the GI50 (SF-539 CNS)?
Answer: 3.54 µM

Question: What about the TGI (SF-539 CNS) of the same compound?
Answer: 7.68 µM

Question: And the GI50 (MDA-MB-435)?
Answer: 3.93 µM

Question: What about the TGI (MDA-MB-435) of the same compound?
Answer: 8.56 µM

Question: What about the GI50 (HOP-62 NSCLC) of the same compound?
Answer: 4.83 µM

Question: And the TGI (HOP-62 NSCLC)?
Answer: 9.96 µM

Question: And the GI50 (SNB-19 CNS)?
Answer: 5.32 µM

Question: And the TGI (SNB-19 CNS)?
Answer: 12.6 µM

Question: What about the GI50 (DU-145 prostate) of the same compound?
Answer: 8.29 µM

Question: What about the TGI (DU-145 prostate) of the same compound?
Answer: 26.6 µM

Question: And the GI50 (CAKI-1 renal)?
Answer: 5.23 µM

Question: And the TGI (CAKI-1 renal)?
Answer: 12.4 µM

Question: And the GI50 (NCI-H23 lung)?
Answer: 4.34 µM

Question: What about the TGI (NCI-H23 lung) of the same compound?
Answer: 10.2 µM

Question: And the GI50 (HT29 colon)?
Answer: 0.984 µM

Question: What about the TGI (HT29 colon) of the same compound?
Answer: 3.87 µM

Question: And the GI50 (NCI-H460 lung)?
Answer: 4.15 µM

Question: And the TGI (NCI-H460 lung)?
Answer: 9.34 µM

Question: What about the GI50 (OVCAR-8 ovarian) of the same compound?
Answer: 5.64 µM

Question: And the TGI (OVCAR-8 ovarian)?
Answer: 11.8 µM

Question: And the GI50 (A498 renal)?
Answer: 4.73 µM

Question: And the TGI (A498 renal)?
Answer: 10.4 µM

Question: And the GI50 (MALME-3M melanoma)?
Answer: 4.01 µM

Question: What about the TGI (MALME-3M melanoma) of the same compound?
Answer: 8.49 µM

Question: What about the GI50 (SK-MEL-5 melanoma) of the same compound?
Answer: 1.57 µM

Question: And the TGI (SK-MEL-5 melanoma)?
Answer: 5.44 µM

Question: What about the GI50 (HL-60(TB) leukemia) of the same compound?
Answer: 3.94 µM

Question: And the TGI (HL-60(TB) leukemia)?
Answer: 12.6 µM

Question: What about the GI50 (CCRF-CEM leukemia) of the same compound?
Answer: 3.05 µM

Question: And the TGI (CCRF-CEM leukemia)?
Answer: 14.4 µM

Question: What about the GI50 (MOLT-4 leukemia) of the same compound?
Answer: 4.1 µM

Question: And the TGI (MOLT-4 leukemia)?
Answer: 19.5 µM

Question: And the GI50 (OVCAR-5 ovarian)?
Answer: 4.16 µM

Question: And the TGI (OVCAR-5 ovarian)?
Answer: 9.55 µM

Question: What about the GI50 (RXF 393 renal) of the same compound?
Answer: 2.5 µM

Question: What about the TGI (RXF 393 renal) of the same compound?
Answer: 7.29 µM

Question: What about the GI50 (LOX IMVI melanoma) of the same compound?
Answer: 1.89 µM

Question: What about the TGI (LOX IMVI melanoma) of the same compound?
Answer: 6.2 µM

Question: And the GI50 (NCI-H226 lung)?
Answer: 4.85 µM

Question: And the TGI (NCI-H226 lung)?
Answer: 9.7 µM

Question: And the GI50 (A549 NSCLC)?
Answer: 4.51 µM

Question: What about the TGI (A549 NSCLC) of the same compound?
Answer: 10.2 µM

Question: And the GI50 (HCC-2998 colon)?
Answer: 3.84 µM

Question: And the TGI (HCC-2998 colon)?
Answer: 8.1 µM

Question: What about the GI50 (TK-10 renal) of the same compound?
Answer: 5.66 µM

Question: And the TGI (TK-10 renal)?
Answer: 13.8 µM

Question: What about the GI50 (MCF7 breast) of the same compound?
Answer: 0.604 µM

Question: What about the TGI (MCF7 breast) of the same compound?
Answer: 5.71 µM
